{"source": "paper PMC3828334", "about": "“Tumor Cell Death Mediated by Peptides That Recognize Branched Intermediates of DNA Replication and Repair” (PLoS ONE, 2013)", "key": {"PC3 cells [1]": {"system": "PC3 cells", "test": "Cell cycle analysis (PI, flow cytometry)", "assay_type": "cell-based", "settings": "PC3, 200 µM, 48 h or 72 h, 2 independent experiments; DMSO 14%", "method": "600,000 PC3 cells were plated in 60-mm dishes at a concentration of 200,000 cells/ml and allowed to attach before they were serum-starved for 48 h by adding RPMI with no supplemented FBS. The cells were then treated in 100, 150 or 200 µM wrwycr in RPMI supplemented with 10% FBS for either 48 h or 72 h followed by permeabilization with cold 70% ethanol overnight. RNase/PI solution (BD Pharmingen) were added to the cells following the protocol in [33] and incubated for 2.5 h at 37°C and analyzed using the PerCP-Cy5-5 channel in a FACS Canto flow cytometer. The results were analyzed using Flow-Jo software."}, "caspase-3 in PC3 cells": {"system": "caspase-3 in PC3 cells", "test": "Caspase-3 assay (Ac-DEVD-AFC cleavage)", "assay_type": "cell-based", "settings": "PC3, 50–200 µM, 12–48 h", "method": "400,000 PC3 cells were plated in a 6-well plate (BD Falcon) at a concentration of 200,000 cells/ml and were allowed to attach overnight at 37°C with 5% CO2 and treated with 50–200 µM wrwycr for 12, 24 or 48 h. The wrwycr-treated cell lysates were incubated with Ac-DEVD (Asp-Glu-Val-Asp)-AFC, a caspase-3 substrate, for 1 h. Activated caspase-3 will cleave between the DEVD and AFC, releasing latter, a fluorogenic compound that can be excited at 400 nm and the resulting emission can be read at 505 nm by the Spectra Max Gemini XS fluorometer plate reader using Softmax Pro version 3.1.2 software. The total protein concentration was calculated for each sample by using BioRad protein assay kit. To normalize the fluorescence reading (RFU) for each sample, the reading for each sample was divided by the corresponding protein concentration of the samples."}, "HeLa cells [2]": {"system": "HeLa cells", "test": "TUNEL assay, HeLa, with z-VAD-fmk or z-FA-fmk", "assay_type": "cell-based", "settings": "24 h", "method": "(§1) 600,000 PC3 cells or 500,000 HeLa cells were plated in 60-mm dishes or 6-well plates respectively to allow them to attach overnight at 37°C with 5% CO2. PC3 cells were subsequently treated with appropriate treatments for 24, 36 and 48 h while HeLa cells were treated with 1 µl of either the caspase inhibitor z-VAD-fmk or z-FA-fmk (both from Biovision), containing appropriate treatments, for 24 h. The cells were fixed with 4% paraformaldehyde for 30 min and permeabilized with 0.1% Triton X-100 in 0.1% sodium citrate buffer for 3 mins. Labeled dUTP were added along with the terminal deoxynucleotidyl transferase dUTP nick end labeling (TUNEL) (TUNEL kit from Roche) as described in the kit. Samples were analyzed using a Becton Dickinson FACS Canto flow cytometer as specified above."}, "HeLa cells [3]": {"system": "HeLa cells", "test": "Live/Dead assay by flow cytometry, HeLa", "assay_type": "cell-based", "settings": "± standard error, at least 4 replicates", "method": "PC3 or HeLa cells were seeded at 400,000 or 500,000 cells per well respectively in 6-well tissue culture plates (BD Falcon) and allowed to attach overnight at 37°C with 5% CO2. The cells were incubated with different concentrations of d-wrwycr for 24 or 48 h respectively before the cells were lifted off from the plate. Cell pellets were resuspended in 200 µl of dye solution containing either cell-permeable calcein AM and/or cell-impermeant ethidium homodimer according to the manufacturer's protocol (Live/dead cytotoxicity kit for mammalian cells, Invitrogen and reference). Data were collected in BDFacs Canto and analyzed using FACSDiva software (Becton-Dickenson)."}, "PC3 cells [4]": {"system": "PC3 cells", "test": "TUNEL assay, PC3", "assay_type": "cell-based", "settings": "PC3, 150 µM, 48 h", "method": "as §1"}, "Du145 cells": {"system": "Du145 cells", "assay_type": "cell-based", "settings": "24 h"}, "γH2AX in PC3 cells": {"system": "γH2AX in PC3 cells", "test": "γH2AX foci by microscopy and flow cytometry", "assay_type": "cell-based", "settings": "PC3, 200 µM, flow cytometry", "method": "DAPI (5 μg/ml) was used to stain the nucleus. The stained cells on the coverslips were mounted on the glass slides and observed with a Zeiss inverted microscope with AxioVision 4.8 software and using the 100× magnification. Foci of 53BP1 were counted manually and the average number of foci per cell was calculated. […] They were subsequently treated with either 50-200 μM […] or 50-100 μM […] or 0.5-1 μM doxorubicin or combination treatment for 0, 12, 24, 36 and 48 h. […] Samples were analyzed using a Becton Dickinson FACS Canto flow cytometer at a forward scatter voltage of 25 V, side-scatter voltage of 400 V, and FITC channel at a voltage of 400 V."}, "[5]": {"system": "U2OS cell lines vs IMR 90 cells", "settings": "cited from earlier work", "text": "A major challenge of cancer treatment is drug delivery. The intact cell membrane protects the cellular components from its surroundings, restricting hydrophilic molecules from entering the cell and allowing only small molecules to cross the membrane. The presence of hydrophobic and basic amino acid residues in peptide wrwycr probably helps it cross the cancer cell membrane more efficiently than normal cells, similar to the cell penetrating peptides (CPPs)."}, "DuPro-1 cells": {"system": "DuPro-1 cells", "assay_type": "cell-based", "settings": "MTT, DuPro-1 cells, 48 h"}, "[6]": {"system": "Htog1 cells (variant of HeLa cells)", "test": "Cytochrome C release / TMRE assay for apoptosis", "assay_type": "cell-based", "settings": "24 h, confocal microscopy", "method": "200,000 Htog1 cells (variant of HeLa cells, a generous gift from Drs. Terrence Frey and Maria Guo) were seeded on cover slips mounted on 35 mm microwell petri dishes (Mattek Corp, Ashland, MA) with DMEM supplemented with 10% FBS and allowed to attach overnight at 37°C in 5% CO2. The media was replaced with 1 ml of the appropriate treatment and incubated for 24 h. After 23 h of treatment, 50 µM tetramethyl rhodamine ethyl ester perchlorate (TMRE) solution was added to each well (final concentration 50 nM) and incubated for the remaining hour. Cytochrome C release and loss of TMRE staining were determined in Z-series images acquired using a Leica TCS SP2 inverted confocal microscope. GFP was excited using 488 nm wavelength from an Ar/Kr laser attenuated to 33%, and the emitted fluorescence detected at 497–553 nm. TMRE fluorescence was excited using a 543 nm wavelength from an Ar/Kr laser attenuated to 35%, and the emitted fluorescence detected at 555–620 nm. Each cell was analyzed for release of GFP (GFP channel), loss of mitochondrial membrane potential (TMRE loss) or morphological abnormalities associated with apoptosis, and the % cells positive for each hallmark was calculated for the various treatments."}, "PPC-1 cells": {"system": "PPC-1 cells", "test": "MTT assay of cell viability, PPC-1", "assay_type": "cell-based", "settings": "48 h"}}, "note": "Several values for one entry are separate records, joined by “and”; a condition that tells them apart may be missing. Identical values can stand only once. Positions of bridges follow the written chain, without caps; N, C: chain ends. Non-standard residues stand in square brackets, D forms with d. Residues, ends and D or L forms follow the SMILES beside them. Chains are numbered I, II in the order given.", "data": [{"smiles": "N=C(N)NCCC[C@@H](NC(=O)[C@@H](CSSC[C@@H](NC(=O)[C@@H](Cc1ccc(O)cc1)NC(=O)[C@@H](Cc1c[nH]c2ccccc12)NC(=O)[C@@H](CCCNC(=N)N)NC(=O)[C@H](N)Cc1c[nH]c2ccccc12)C(=O)N[C@H](CCCNC(=N)N)C(N)=O)NC(=O)[C@@H](Cc1ccc(O)cc1)NC(=O)[C@@H](Cc1c[nH]c2ccccc12)NC(=O)[C@@H](CCCNC(=N)N)NC(=O)[C@H](N)Cc1c[nH]c2ccccc12)C(N)=O", "note": "[wrwycr, Trp-Arg-Trp-Tyr-Cys-Arg] (I: H-[dW][dR][dW][dY][dC][dR]-NH2 / II: H-[dW][dR][dW][dY][dC][dR]-NH2; disulfide I:5-II:5; N-terminus assumed)", "values": [{"measurement": "percentage of the S phase cellular population", "setting": "PC3 cells [1]", "value": 50, "unit": "%"}, {"measurement": "caspase-3 activation compared to DMSO control", "setting": "caspase-3 in PC3 cells", "value": "no significant activation of caspase-3"}, {"measurement": "TUNEL-positive cells", "setting": "HeLa cells [2]; 100 µM wrwycr", "value": 13, "unit": "%"}, {"measurement": "TUNEL positive cells with caspase inhibitor z-VAD-fmk versus mock inhibitor z-FA-fmk", "setting": "HeLa cells [2]", "value": "No significant difference"}, {"measurement": "Hela population % Dead", "setting": "HeLa cells [3]; 100 µM wrwycr", "value": "5.4±2.0", "unit": "%"}, {"measurement": "Hela population %Live", "setting": "HeLa cells [3]; 100 µM wrwycr", "value": "90.4±2.3", "unit": "%"}, {"measurement": "Hela population % Dead", "setting": "HeLa cells [3]; 150 µM wrwycr", "value": "7.8±2.7", "unit": "%"}, {"measurement": "Hela population %Live", "setting": "HeLa cells [3]; 150 µM wrwycr", "value": "86.3±2.5", "unit": "%"}, {"measurement": "Hela population % Dead", "setting": "HeLa cells [3]; 200 µM wrwycr", "value": "12.7±6.0", "unit": "%"}, {"measurement": "Hela population %Live", "setting": "HeLa cells [3]; 200 µM wrwycr", "value": "79% and 79.3±4.5%"}, {"measurement": "TUNEL positive cell population", "setting": "PC3 cells [4]", "value": 65, "unit": "%"}, {"measurement": "IC50", "setting": "Du145 cells", "value": "150 to 200", "unit": "µM"}, {"measurement": "γH2AX positive cells", "setting": "γH2AX in PC3 cells; after 36–48 h", "value": "20–35%"}, {"measurement": "γH2AX positive cells", "setting": "γH2AX in PC3 cells; between 12–24 h", "value": "2–5%"}, {"measurement": "uptake in U2OS cell lines relative to non-tumor derived IMR 90 cells", "setting": "[5]", "value": 3, "unit": "×"}, {"measurement": "IC50", "setting": "DuPro-1 cells", "value": "the same IC50 as the PC3 cell line"}, {"measurement": "cytochrome C release or loss of TMRE", "setting": "[6]", "value": "little or no cytochrome C release or loss of TMRE"}, {"measurement": "IC50", "setting": "PPC-1 cells", "value": "the same IC50 as the PC3 cell line"}]}]}
